{
  "source": "patent US11058138B2",
  "about": "“Composition for calcium supplementation” (ABIOGEN PHARMA S.P.A., priority 2017, dated 2021)",
  "origin": "cited, not measured here",
  "settings": "versus calcium carbonate",
  "data": [
    {"smiles": "O=C([O-])CC(O)(CC(=O)[O-])C(=O)[O-].O=C([O-])CC(O)(CC(=O)[O-])C(=O)[O-].[Ca+2].[Ca+2].[Ca+2]", "note": "[calcium citrate]", "values": [
      {"measurement": "Bioavailability higher than that of calcium carbonate", "value": "20-30%"}
    ]}
  ]
}
